{"source": "paper PMC12626888", "about": "“Discovery of iridoid cyclase completes the iridoid pathway in asterids” (Nature Plants, 2025)", "type_in_all_cases": "biochemical", "key": {"[1]": {"biological_target": "T1, VcICYC (Vaccinium corymbosum, UniProt Z9DZC4CR80)", "T1 construct": "synthetic full-length gene in pOPINF, His-tagged, E. coli SoluBL21 (DE3), Ni-NTA", "T1 sequence (Z9DZC4CR80 1-256)": "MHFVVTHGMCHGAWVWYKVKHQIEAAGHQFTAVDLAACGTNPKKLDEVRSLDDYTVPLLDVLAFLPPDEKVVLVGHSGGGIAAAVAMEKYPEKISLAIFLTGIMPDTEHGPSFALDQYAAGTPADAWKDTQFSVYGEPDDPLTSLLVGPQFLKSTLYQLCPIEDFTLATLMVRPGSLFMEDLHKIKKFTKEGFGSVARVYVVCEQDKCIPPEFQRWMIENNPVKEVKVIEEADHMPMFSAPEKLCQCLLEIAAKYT", "test": "spectrophotometric esterase assay, […] nm", "details": "2 mM substrate; 0.5 uM enzyme; 100 mM HEPES pH 7; 1 mM CaCl2; 25 °C"}, "[2]": {"biological_target": "T2, CrICYC (Catharanthus roseus, UniProt Z9BZX6L7S3)", "T2 construct": "full-length CDS in pOPINF, His-tagged, E. coli SoluBL21 (DE3), Ni-NTA", "T2 sequence (Z9BZX6L7S3 1-258)": "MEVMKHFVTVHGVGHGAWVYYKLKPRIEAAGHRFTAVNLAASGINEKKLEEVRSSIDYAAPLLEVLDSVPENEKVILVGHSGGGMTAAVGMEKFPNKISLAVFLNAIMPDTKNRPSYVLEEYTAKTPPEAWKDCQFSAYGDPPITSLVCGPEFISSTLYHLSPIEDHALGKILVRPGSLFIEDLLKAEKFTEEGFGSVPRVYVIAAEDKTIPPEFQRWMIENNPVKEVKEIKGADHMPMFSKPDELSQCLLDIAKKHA", "test": "spectrophotometric esterase assay, […] nm", "details": "2 mM substrate; 0.5 uM enzyme; 100 mM HEPES pH 7; 1 mM CaCl2; 25 °C"}, "[3]": {"biological_target": "T3, LjICYC (Lonicera japonica, UniProt Z9XP04JJ76)", "T3 construct": "synthetic full-length gene in pOPINF, His-tagged, E. coli SoluBL21 (DE3), Ni-NTA", "T3 sequence (Z9XP04JJ76 1-260)": "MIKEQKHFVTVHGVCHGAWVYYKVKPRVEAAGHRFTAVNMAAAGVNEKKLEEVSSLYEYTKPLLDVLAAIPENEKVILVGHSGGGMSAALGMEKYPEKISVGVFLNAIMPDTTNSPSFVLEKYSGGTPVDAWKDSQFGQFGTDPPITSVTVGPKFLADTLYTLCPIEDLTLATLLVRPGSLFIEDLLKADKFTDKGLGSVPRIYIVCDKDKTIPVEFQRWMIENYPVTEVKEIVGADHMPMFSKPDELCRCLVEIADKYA", "test": "spectrophotometric esterase assay, […] nm", "details": "2 mM substrate; 0.5 uM enzyme; 100 mM HEPES pH 7; 1 mM CaCl2; 25 °C"}, "[4]": {"biological_target": "T4, AsICYC (Alangium salviifolium, UniProt Z9MAI7V5A1)", "T4 construct": "full-length CDS in pOPINF, His-tagged, E. coli SoluBL21 (DE3), Ni-NTA", "T4 sequence (Z9MAI7V5A1 1-262)": "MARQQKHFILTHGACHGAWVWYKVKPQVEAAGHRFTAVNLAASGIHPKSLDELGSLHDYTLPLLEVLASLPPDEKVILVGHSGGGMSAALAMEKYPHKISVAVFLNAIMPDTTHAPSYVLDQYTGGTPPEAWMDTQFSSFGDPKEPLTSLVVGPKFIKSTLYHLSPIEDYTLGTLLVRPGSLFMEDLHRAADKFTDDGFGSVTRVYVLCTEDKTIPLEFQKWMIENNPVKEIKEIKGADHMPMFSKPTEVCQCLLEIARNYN", "test": "spectrophotometric esterase assay, […] nm", "details": "2 mM substrate; 0.5 uM enzyme; 100 mM HEPES pH 7; 1 mM CaCl2; 25 °C"}, "[5]": {"biological_target": "T5, SiICYC (Sesamum indicum, UniProt A0A6I9UJQ5)", "T5 construct": "gene LOC105177689; synthetic full-length gene in pOPINF, His-tagged, E. coli SoluBL21 (DE3), Ni-NTA", "T5 sequence (A0A6I9UJQ5 entry or part of it)": "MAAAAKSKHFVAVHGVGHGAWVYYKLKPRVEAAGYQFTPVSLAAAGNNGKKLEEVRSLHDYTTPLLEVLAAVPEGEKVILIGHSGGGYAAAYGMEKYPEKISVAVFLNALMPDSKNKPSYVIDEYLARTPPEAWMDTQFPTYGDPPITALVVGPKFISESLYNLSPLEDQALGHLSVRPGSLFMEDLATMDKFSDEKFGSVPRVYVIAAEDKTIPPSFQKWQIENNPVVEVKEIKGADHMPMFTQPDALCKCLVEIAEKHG", "test": "spectrophotometric esterase assay, […] nm", "details": "2 mM substrate; 0.5 uM enzyme; 100 mM HEPES pH 7; 1 mM CaCl2; 25 °C"}, "[6]": {"biological_target": "T6, AmICYC (Antirrhinum majus, UniProt Z9RFY5ZUY7)", "T6 construct": "synthetic full-length gene in pOPINF, His-tagged, E. coli SoluBL21 (DE3), Ni-NTA", "T6 sequence (Z9RFY5ZUY7 1-261)": "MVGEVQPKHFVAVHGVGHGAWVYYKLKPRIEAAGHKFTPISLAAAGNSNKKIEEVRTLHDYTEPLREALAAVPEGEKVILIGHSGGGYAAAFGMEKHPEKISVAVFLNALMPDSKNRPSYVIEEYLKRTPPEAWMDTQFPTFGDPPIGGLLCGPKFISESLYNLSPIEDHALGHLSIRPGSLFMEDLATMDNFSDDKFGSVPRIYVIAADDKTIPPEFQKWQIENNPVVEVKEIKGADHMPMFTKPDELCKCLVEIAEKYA", "test": "spectrophotometric esterase assay, […] nm", "details": "2 mM substrate; 0.5 uM enzyme; 100 mM HEPES pH 7; 1 mM CaCl2; 25 °C"}, "[7]": {"biological_target": "T7, CiICYC (Carapichea ipecacuanha, UniProt Z9ZM09DHC0)", "T7 construct": "full-length CDS in pOPINF, His-tagged, E. coli SoluBL21 (DE3), Ni-NTA", "T7 sequence (Z9ZM09DHC0 1-260)": "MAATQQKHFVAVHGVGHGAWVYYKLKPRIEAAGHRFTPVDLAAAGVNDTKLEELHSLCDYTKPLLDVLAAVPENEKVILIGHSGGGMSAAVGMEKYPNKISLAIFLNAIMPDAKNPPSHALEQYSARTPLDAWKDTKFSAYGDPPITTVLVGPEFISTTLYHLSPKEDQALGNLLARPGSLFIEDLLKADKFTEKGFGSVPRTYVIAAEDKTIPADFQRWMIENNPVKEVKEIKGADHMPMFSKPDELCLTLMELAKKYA", "test": "spectrophotometric esterase assay, […] nm", "details": "2 mM substrate; 0.5 uM enzyme; 100 mM HEPES pH 7; 1 mM CaCl2; 25 °C"}, "[8]": {"biological_target": "T8, AmISY (Antirrhinum majus, UniProt A0A221J5P3)", "T8 construct": "gene ISY; recombinant, E. coli, pOPINF His-tagged", "T8 sequence (A0A221J5P3 1-387)": "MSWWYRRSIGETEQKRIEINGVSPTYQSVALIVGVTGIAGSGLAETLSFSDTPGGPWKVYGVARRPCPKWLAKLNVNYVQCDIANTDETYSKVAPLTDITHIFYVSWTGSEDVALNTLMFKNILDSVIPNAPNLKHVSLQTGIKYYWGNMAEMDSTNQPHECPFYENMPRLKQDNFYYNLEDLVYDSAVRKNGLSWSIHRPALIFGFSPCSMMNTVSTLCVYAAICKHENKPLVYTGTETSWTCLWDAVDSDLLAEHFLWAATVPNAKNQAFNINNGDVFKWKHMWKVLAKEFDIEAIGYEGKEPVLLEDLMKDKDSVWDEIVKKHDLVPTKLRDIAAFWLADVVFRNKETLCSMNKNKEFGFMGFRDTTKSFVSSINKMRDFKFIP", "test": "GC-MS of products", "details": "0.5 mM 8-oxogeranial; 1 mM NADPH; 0.5 uM AmISY; 100 mM MOPS pH 7.5; 30 °C; 3 h"}, "[9]": {"biological_target": "T9, CrISY (Catharanthus roseus, UniProt K7WDL7)", "T9 construct": "recombinant, E. coli, pOPINF His-tagged", "T9 sequence (K7WDL7 whole entry)": "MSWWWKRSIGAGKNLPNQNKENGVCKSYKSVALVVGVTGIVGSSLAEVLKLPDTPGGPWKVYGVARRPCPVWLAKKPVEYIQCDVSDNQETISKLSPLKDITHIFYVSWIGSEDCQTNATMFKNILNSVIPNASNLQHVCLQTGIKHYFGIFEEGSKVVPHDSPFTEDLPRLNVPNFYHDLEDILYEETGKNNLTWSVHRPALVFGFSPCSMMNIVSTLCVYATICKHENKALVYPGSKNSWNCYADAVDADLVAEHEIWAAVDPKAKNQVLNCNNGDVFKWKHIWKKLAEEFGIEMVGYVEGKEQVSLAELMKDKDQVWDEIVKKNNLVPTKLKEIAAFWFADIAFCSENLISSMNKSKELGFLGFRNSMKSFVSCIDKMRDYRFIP", "test": "GC-MS of products", "details": "0.5 mM 8-oxogeranial; 1 mM NADPH; 0.25 uM CrISY; 100 mM MOPS pH 7.5; 30 °C; 3 h"}, "[10]": {"biological_target": "T5, SiICYC", "test": "GC-MS of 7R-cis-cis nepetalactol formed in coupled assay with AmISY", "details": "enol generated in situ from 0.5 mM 8-oxogeranial by AmISY with 1 mM NADPH; 2 uM ICYC; 100 mM MOPS pH 7.5; 30 °C; 3 h"}, "[11]": {"biological_target": "T6, AmICYC", "test": "GC-MS of 7R-cis-cis nepetalactol formed in coupled assay with AmISY", "details": "enol generated in situ from 0.5 mM 8-oxogeranial by AmISY with 1 mM NADPH; 2 uM ICYC; 100 mM MOPS pH 7.5; 30 °C; 3 h"}, "[12]": {"biological_target": "T3, LjICYC", "test": "GC-MS of 7S-cis-trans nepetalactol formed in coupled assay with CrISY", "details": "enol generated in situ from 0.5 mM 8-oxogeranial by CrISY with 1 mM NADPH; 2 uM ICYC; 100 mM MOPS pH 7.5; 30 °C; 3 h"}, "[13]": {"biological_target": "T2, CrICYC", "test": "GC-MS of 7S-cis-trans nepetalactol formed in coupled assay with CrISY", "details": "enol generated in situ from 0.5 mM 8-oxogeranial by CrISY with 1 mM NADPH; 2 uM ICYC; 100 mM MOPS pH 7.5; 30 °C; 3 h"}, "[14]": {"biological_target": "T7, CiICYC", "test": "GC-MS of 7S-cis-trans nepetalactol formed in coupled assay with CrISY", "details": "enol generated in situ from 0.5 mM 8-oxogeranial by CrISY with 1 mM NADPH; 2 uM ICYC; 100 mM MOPS pH 7.5; 30 °C; 3 h"}, "[15]": {"biological_target": "T4, AsICYC", "test": "GC-MS of 7S-cis-trans nepetalactol formed in coupled assay with CrISY", "details": "enol generated in situ from 0.5 mM 8-oxogeranial by CrISY with 1 mM NADPH; 2 uM ICYC; 100 mM MOPS pH 7.5; 30 °C; 3 h"}, "[16]": {"biological_target": "T1, VcICYC", "test": "GC-MS of 7S-cis-trans nepetalactol formed in coupled assay with CrISY", "details": "enol generated in situ from 0.5 mM 8-oxogeranial by CrISY with 1 mM NADPH; 2 uM ICYC; 100 mM MOPS pH 7.5; 30 °C; 3 h"}}}
{"compound": "CC(=O)Oc1ccc([N+](=O)[O-])cc1", "note": "[4-nitrophenyl acetate]", "values": [{"measurement": "spectrophotometric esterase assay, 405 nm", "setting": "[1]", "result": "All ICYC orthologues showed esterase activity when tested with the model substrate 4-nitrophenyl acetate"}, {"measurement": "spectrophotometric esterase assay, 405 nm", "setting": "[2]", "result": "All ICYC orthologues showed esterase activity when tested with the model substrate 4-nitrophenyl acetate"}, {"measurement": "spectrophotometric esterase assay, 405 nm", "setting": "[3]", "result": "All ICYC orthologues showed esterase activity when tested with the model substrate 4-nitrophenyl acetate"}, {"measurement": "spectrophotometric esterase assay, 405 nm", "setting": "[4]", "result": "All ICYC orthologues showed esterase activity when tested with the model substrate 4-nitrophenyl acetate"}, {"measurement": "spectrophotometric esterase assay, 405 nm", "setting": "[5]", "result": "All ICYC orthologues showed esterase activity when tested with the model substrate 4-nitrophenyl acetate"}, {"measurement": "spectrophotometric esterase assay, 405 nm", "setting": "[6]", "result": "All ICYC orthologues showed esterase activity when tested with the model substrate 4-nitrophenyl acetate"}, {"measurement": "spectrophotometric esterase assay, 405 nm", "setting": "[7]", "result": "All ICYC orthologues showed esterase activity when tested with the model substrate 4-nitrophenyl acetate"}]}
{"compound": "C/C(C=O)=C\\CC/C(C)=C/C=O", "note": "[8-oxogeranial]", "values": [{"measurement": "GC-MS of products", "setting": "[8]", "result": "CrISY and AmISY reduce 8-oxogeranial to form the unstable intermediate S- or R-8-oxocitronellyl enol"}, {"measurement": "GC-MS of products", "setting": "[9]", "result": "CrISY and AmISY reduce 8-oxogeranial to form the unstable intermediate S- or R-8-oxocitronellyl enol"}]}
{"compound": "C/C(C=O)=C\\CC[C@@H](C)/C=C/O", "note": "[R-8-oxocitronellyl enol]", "values": [{"measurement": "GC-MS of 7R-cis-cis nepetalactol formed in coupled assay with AmISY", "setting": "[10]", "result": "When AmISY was assayed with ICYC orthologues, a new peak appeared"}, {"measurement": "GC-MS of 7R-cis-cis nepetalactol formed in coupled assay with AmISY", "setting": "[11]", "result": "When AmISY was assayed with ICYC orthologues, a new peak appeared"}]}
{"compound": "C/C(C=O)=C\\CC[C@H](C)/C=C/O", "note": "[S-8-oxocitronellyl enol]", "values": [{"measurement": "GC-MS of 7S-cis-trans nepetalactol formed in coupled assay with CrISY", "setting": "[12]", "result": "any of the ICYC orthologues, 7S-cis-trans (7S, 4aS, 7aS) nepetalactol accumulation was substantially increased"}, {"measurement": "GC-MS of 7S-cis-trans nepetalactol formed in coupled assay with CrISY", "setting": "[13]", "result": "any of the ICYC orthologues, 7S-cis-trans (7S, 4aS, 7aS) nepetalactol accumulation was substantially increased"}, {"measurement": "GC-MS of 7S-cis-trans nepetalactol formed in coupled assay with CrISY", "setting": "[14]", "result": "any of the ICYC orthologues, 7S-cis-trans (7S, 4aS, 7aS) nepetalactol accumulation was substantially increased"}, {"measurement": "GC-MS of 7S-cis-trans nepetalactol formed in coupled assay with CrISY", "setting": "[15]", "result": "any of the ICYC orthologues, 7S-cis-trans (7S, 4aS, 7aS) nepetalactol accumulation was substantially increased"}, {"measurement": "GC-MS of 7S-cis-trans nepetalactol formed in coupled assay with CrISY", "setting": "[16]", "result": "any of the ICYC orthologues, 7S-cis-trans (7S, 4aS, 7aS) nepetalactol accumulation was substantially increased"}]}
